Here are results for one compound from patent US7718815B2, “Alpha-aminoamide derivatives useful in the treatment of lower urinary tract disorders” (Newron Pharmaceuticals S.p.A., priority 2004, dated 2010).

The test system of experiment [1] is cyclophosphamide (CYP) irritated bladders of rats. In words: Intermediate bladder irritation by cyclophosphamide (CYP) in rats (continuous infusion cystometrogram). The following applies: 0.1 to 10 mg/kg/iv, CYP 150 mg/kg/ip one day before. The format is in vivo, rat (female Sprague Dawley). As for the experimental part: (§1) The effect of a representative compound of formula I, (S)-(+)-2-[4-(2-fluorobenzyloxy)-benzylamino]-propanamide (NW-1029), on voiding function was tested in the following rat models of “Acute bladder irritation by acetic acid” and “Intermediate bladder irritation by cyclophosphamide (CYP)”.
(§2) Continuous infusion cystometrograms (0.04 ml/min) were used to measure intercontraction intervals (ICIs) which provide an estimate of bladder capacity. Cumulative dose response curves were obtained in each animal by administering intravenously increasing doses of the drug.
Experiments were performed using both adult awake and anesthetized female Sprague Dawley rats (170-200 g).
Chemical cystitis was induced by CYP, which is metabolized to acrolein, an irritant eliminated in the urine. CYP (150 mg/kg/ip) was administered one day before the experiment.
NW-1029 was administered in a dose range from 0.1 to 10 mg/kg/iv.

In experiment [2] the test system is acetic acid (AA) irritated bladders of rats. In words: Acute bladder irritation by acetic acid in rats (continuous infusion cystometrogram). The format is in vivo, rat (female Sprague Dawley). The following applies: anesthetized rats; 3, 10 and 30 mg/kg, intravenous cumulative doses; intravesical infusion of 0.15% acetic acid; FIG. 1. As for the experimental part: as §1, §2
Experiments were performed using adult anesthetized female Sprague Dawley rats (170-200 g).
A catheter (PE-50) was inserted via a midline abdominal incision into the bladder through the bladder dome, and then intravesical pressure was measured to monitor bladder activity during continuous infusion of 0.15% of acetic acid. Intercontraction intervals (ICIs), maximal contraction pressure, and pressure thresholds inducing reflex bladder contraction were measured before and after intravesical infusion of acetic acid in NW-1029 treated rats.

Turning to `C[C@H](NCc1ccc(OCc2ccccc2F)cc1)C(N)=O` [NW-1029, (S)-(+)-2-[4-(2-fluorobenzyloxy)-benzylamino]-propanamide], the “intercontraction interval (ICI)” value in experiment [1] (anesthetized rats, FIG. 3) is listed as “significantly increases the ICI”; in experiment [1] (awake rats, FIG. 2), “significantly increases the ICI”. In addition, in experiment [2], the “intercontraction interval (ICI), reversal of AA-induced reduction” value is recorded as “significant reversal of the AA-induced reduction in the ICI”.
